Source: publication PMC11699130, “Design and synthesis of antiproliferative 2-oxoindolin-3-ylidenes incorporating urea function with potential VEGFR-2 inhibitory properties” (Scientific Reports, 2025)

Legend:
Assay type in all cases: cell-based
[1] = system: PaCa2 (pancreatic) carcinoma cell line; experiment: MTT antiproliferation assay, PaCa2; details: for IC50: PaCa-2, MTT, 72 h incubation, PaCa2 (pancreatic), read-out: IC50, μM ± SD, PaCa2; for SI (safety/selectivity index), PaCa2: in brackets after IC50, normal RPE1 relative to PaCa2
From the text: (§1) Antiproliferation properties against normal RPE1 (human immortalized retinal pigment epithelial) cell line were also considered for safety/selectivity index (SI) determination of each respective agent synthesized (Table 1, Supplementary Figs. S61–S64). […]
(§2) All the biological studies conducted obey the standards and approved by the Research Ethics Committee, National Research Centre, Egypt (associated with project ID:
(§3) Antiproliferation properties
(§4) The synthesized compounds 12a‒j were screened for their antiproliferation properties against HCT116 (colon), MCF7 (breast) and PaCa2 (pancreatic) cancer cell lines by the standard mitochondrial dependent reduction of yellow MTT [3 -(4,5-dimethylthiazol-2- […]
(§5) considered as standard reference/drug. Cells were suspended in DMEM medium for MCF7, PaCa-2 and McCoy’s 5A for HCT116 in addition to 1% antibiotic–antimycotic mixture (10000 μg ml-1 potassium penicillin, 10000 μg ml-1 streptomycin sulfate and 25 μg ml-1 amphotericin B), 10% fetal bovine serum and 1% L-glutamine at 37 °C, under 5% CO2 and 95% humidity. Cells were seeded at concentration of 30000 cells per well in fresh complete growth medium in 96-well tissue culture microtiter plates for 24 h. Media […]
(§6) was aspirated, fresh complete medium was added and cells were incubated with different concentrations of the tested compound to give a final concentration of [50, 25, 12.5 and 6.25 μM “in addition to 3.125, 1.56 and 0.78 μM in case of high potent a nalogs”). 0.5% DMSO was used as a negative control. Triplicate wells were prepared for each individual dose. After 72 h of incubation, medium was aspirated, 40 μl MTT salt (2.5 mg ml -1) was added to each well and incubated for further 4 h at 37 °C. To stop the reaction and dissolve the formed crystals, 150 μl of 10% sodium dodecyl sulfate (SDS) in deionized water was added to each well and incubated overnight at 37 °C. The absorbance was then measured at 570 nm and a reference wavelength of 595 nm.
(§7) Data were collected as mean values for experiments performed in triplicates for each individual dose which had been measured by MTT assay. Control experiments did […]
(§8) The cell surviving fraction was calculated according to the following equation.
(§9) Surviving fraction = Opticaldensity(O.D.)oftreatedcells
(§10) The agents synthesized were also tested against RPE1 (normal human immortalized retinal pigment epithelial cell line) cell (in DMEM -F12 medium) to determine the toxicity/selectivity towards normal cells relative to the cancer cell lines […]
(§11) The IC50 (concentration required to produce 50% inhibition of cell growth compared to the control experiment) was determined using Graph-Pad PRISM version-5 software. Statistical calculations for determination of the mean and standard division (SD) values were determined by SPSS 16 so ftware. The observed anti-proliferative properties are presented in Table 1 ( Supplementary Figs. S61‒S64). […]

[2] = system: HCT116 (colon) carcinoma cell line; experiment: MTT antiproliferation assay, HCT116; details: for IC50: Homo sapiens, HCT-116, MTT, 72 h incubation, HCT116 (colon), read-out: IC50, μM ± SD, HCT116; for SI (safety/selectivity index), HCT116: in brackets after IC50, normal RPE1 relative to HCT116
From the text: as §1, §2, §3, §4, §5, §6, §7, §8, §9, §10, §11

[3] = system: MCF7 (breast) carcinoma cell line; experiment: MTT antiproliferation assay, MCF7; details: for IC50: Homo sapiens, MTT, 72 h incubation, MCF7 (breast), read-out: IC50, μM ± SD, MCF7; for SI (safety/selectivity index), MCF7: in brackets after IC50, normal RPE1 relative to MCF7
From the text: as §1, §2, §3, §4, §5, §6, §7, §8, §9, §10, §11

VEGFR-2 = target: T1, VEGFR-2 (Homo sapiens, UniProt P35968); experiment: VEGFR-2 inhibitory properties by western blotting; details: for Relative quantification (RQ): VEGFR-2 western blot band, normalised to beta actin, at 10 μM, control RQ 3.290; for inhibition at 10 µM: western blotting, read-out: % Inhibition against VEGFR-2
T1 construct: lysed cells; endogenous in cells
T1 sequence (P35968 20-1356): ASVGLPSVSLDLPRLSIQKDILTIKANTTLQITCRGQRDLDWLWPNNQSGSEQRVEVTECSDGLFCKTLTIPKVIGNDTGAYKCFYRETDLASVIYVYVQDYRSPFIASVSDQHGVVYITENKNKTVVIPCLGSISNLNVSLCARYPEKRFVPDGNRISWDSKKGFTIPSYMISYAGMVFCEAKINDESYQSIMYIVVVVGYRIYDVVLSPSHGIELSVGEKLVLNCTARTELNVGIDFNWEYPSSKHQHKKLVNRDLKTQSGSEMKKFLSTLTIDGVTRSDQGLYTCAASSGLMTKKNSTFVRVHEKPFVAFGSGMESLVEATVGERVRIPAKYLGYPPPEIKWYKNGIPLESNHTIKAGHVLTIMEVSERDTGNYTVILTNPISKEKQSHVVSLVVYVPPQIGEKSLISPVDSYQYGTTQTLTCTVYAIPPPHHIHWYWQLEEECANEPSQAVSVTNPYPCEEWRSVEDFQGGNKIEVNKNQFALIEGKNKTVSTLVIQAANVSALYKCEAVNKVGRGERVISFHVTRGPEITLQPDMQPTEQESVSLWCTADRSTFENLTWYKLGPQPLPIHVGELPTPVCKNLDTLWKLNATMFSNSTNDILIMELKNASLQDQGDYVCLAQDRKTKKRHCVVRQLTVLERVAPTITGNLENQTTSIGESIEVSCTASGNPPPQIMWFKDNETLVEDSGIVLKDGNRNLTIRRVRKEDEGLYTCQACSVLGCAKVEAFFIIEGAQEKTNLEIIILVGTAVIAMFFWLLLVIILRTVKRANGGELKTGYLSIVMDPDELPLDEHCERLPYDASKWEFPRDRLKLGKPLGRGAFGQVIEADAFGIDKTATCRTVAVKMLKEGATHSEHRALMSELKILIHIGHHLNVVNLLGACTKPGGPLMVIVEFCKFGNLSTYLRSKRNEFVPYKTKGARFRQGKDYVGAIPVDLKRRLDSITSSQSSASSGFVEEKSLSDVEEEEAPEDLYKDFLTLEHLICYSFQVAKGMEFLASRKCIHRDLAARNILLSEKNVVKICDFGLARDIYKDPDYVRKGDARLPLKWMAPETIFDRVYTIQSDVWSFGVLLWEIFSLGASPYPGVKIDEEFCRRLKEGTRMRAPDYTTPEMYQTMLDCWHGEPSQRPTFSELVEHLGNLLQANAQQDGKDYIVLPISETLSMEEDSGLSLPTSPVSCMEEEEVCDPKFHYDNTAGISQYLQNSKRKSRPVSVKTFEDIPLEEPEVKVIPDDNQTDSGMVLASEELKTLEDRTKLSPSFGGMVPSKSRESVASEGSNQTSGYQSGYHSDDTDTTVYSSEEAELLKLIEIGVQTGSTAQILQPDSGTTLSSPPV
Experimental: VEGFR-2 inhibitory properties […]
standard/drug) was determined at 10 μM by the western blotting technique obeying the manufacturer’s instruction (Santa Cruz Biotechnology, Inc .).5
Protein extraction procedure
The ReadyPrepTM protein extraction kit (total protein) provided by Bio-Rad Inc.
(Catalog #163-2086) employed by the manufacturer, was added to each sample of the lysed cells. Bradford Protein Assay Kit (SK3041) for quantitative protein analysis was provided by Bio-basic Inc. (Markham Ontario L3R 8T4 Canada). A Bradford assay was performed according to manufacturer’s instructions to determine protein concentration in each sample. 20 μg protein concentration of each sample was then loaded with an equal volume of 2x Laemmli sample buffer containing 4% SDS, 10% 2-mercaptoehtanol, 20% glycerol, 0.004% bromophenol blue and 0.125 M Tris HCl. The pH was checked and brought to 6.8. Each previous mixture was boiled at 95°C for 5 min to ensure denaturation of protein before loading on polyacrylamide gel electrophoresis.
Protein separation by electrophoresis
Samples were separated on a polyacrylamide gel; the procedure was abbreviated as SDS-PAGE form Sodium Dodecyl Sulfate PolyAcrylamide Gel Electrophoresis, which is a standard technique for separating proteins according to their molecular weight.
Polyacrylamide gels were performed using TGX Stain-Free™ FastCast™ Acrylamide Kit (SDS-PAGE), which was provided by Bio-Rad Laboratories inc Cat # 161-0181. The SDS-PAGE TGX Stain-Free FastCast was prepared according to manufacturer’s […]
Protein blotting (transfer of proteins from the gel to the membrane)
The gel was assembled in transfer sandwich from below to above (filter paper, PVDF membrane, gel and filter paper). The sandwich was placed in the transfer tank with 1x transfer buffer, which is composed of 25 mM Tris and 190 mM glycine and 20% methanol. Then, the blot was run for 7 min . at 25 V to allow protein bands transfer from gel to membrane using BioRad Trans-Blot Turbo.
The membrane was blocked in tris -buffered saline with Tween 20 (TBST) buffer and 3% bovine serum albumin (BSA) at room temperature for 1 hr. The components of blocking […]
buffer were as follow; 20 mM Tris pH 7.5, 150 mM NaCl, 0.1% Tween 20 and 3% bovine serum albumin (BSA).
Incubation with the primary antibody
Primary antibody of VEGFR2 was purchased. Primary antibody was diluted in TBST according to manufactured instructions.

[4] = system: RPE1 (human immortalized retinal pigment epithelial) cell line; experiment: MTT assay on normal cells for safety/selectivity; details: RPE-1, read-out: IC50, μM ± SD, RPE1
Experimental: as §1, §6, §7, §8, §9, §10, §11

| Compound | IC50 [1] [µM] | IC50 [2] [µM] | IC50 [3] [µM] | Relative quantification (RQ) (VEGFR-2) | inhibition at 10 µM (VEGFR-2) [%] | IC50 [4] [µM] | SI (safety/selectivity index), PaCa2 [1] | SI (safety/selectivity index), HCT116 [2] | SI (safety/selectivity index), MCF7 [3] | fold more potent than sunitinib ([1]; PaCa2, ratio of IC50 values) |
| --- | --- | --- | --- | --- | --- | --- | --- | --- | --- | --- |
| CCN(CC)CCNC(=O)c1c(C)[nH]c(/C=C2\C(=O)Nc3ccc(F)cc32)c1C [Sunitinib, reference compound] | 13.34 ± 0.091 | 9.57 ± 0.949 | 11.8 ± 0.937 | – | – | – | – | – | – | – |
| COc1ccc2c(c1)/C(=C\C(=O)c1ccc(NC(=O)Nc3ccccc3)cc1)C(=O)N2 [Compound 12j, (E)-1-{4-[2-(5-Methoxy-2-oxoindolin-3-ylidene)acetyl]phenyl}-3-phenylurea] | 4.49 ± 0.785 | 6.15 ± 0.539 | 1.69 ± 0.067 | 0.678 | 79.4 | 8.6 ± 0.334 | 1.917 | 1.400 | 5.090 | – |
| O=C(Nc1ccccc1)Nc1cccc(C(=O)/C=C2/C(=O)Nc3ccc(Cl)cc32)c1 [Compound 12e, (E)-1-{3-[2-(5-Chloro-2-oxoindolin-3-ylidene)acetyl]phenyl}-3-phenylurea] | 7 ± 1.11 | 11.9 ± 2.53 | 3.91 ± 0.78 | 0.538 | 83.6 | 14.6 ± 0.316 | 2.087 | 1.229 | 3.738 | – |
| COc1ccc2c(c1)/C(=C\C(=O)c1cccc(NC(=O)Nc3ccccc3)c1)C(=O)N2 [Compound 12i, (E)-1-{3-[2-(5-Methoxy-2-oxoindolin-3-ylidene)acetyl]phenyl}-3-phenylurea] | 7.64 ± 0.08 | 27.2 ± 2.95 | 8.96 ± 0.767 | 0.634 | 80.7 | 30.2 ± 0.948 | 3.952 | 1.111 | 3.370 | – |
| O=C(Nc1ccccc1)Nc1ccc(C(=O)/C=C2/C(=O)Nc3ccc(F)cc32)cc1 [Compound 12d, (E)-1-{4-[2-(5-Fluoro-2-oxoindolin-3-ylidene)acetyl]phenyl}-3-phenylurea] | 4.96 ± 0.201 | 5.78 ± 0.593 | 2.9 ± 0.3 | 0.491 | 85.1 | 11 ± 0.429 | 2.214 | 1.898 | 3.779 | – |
| O=C(Nc1ccccc1)Nc1ccc(C(=O)/C=C2/C(=O)Nc3ccc(Br)cc32)cc1 [Compound 12g, (E)-1-{4-[2-(5-Bromo-2-oxoindolin-3-ylidene)acetyl]phenyl}-3-phenylurea] | 5.32 ± 0.228 | 6.29 ± 0.912 | 4.41 ± 0.544 | 0.500 | 84.8 | 13.7 ± 0.85 | 2.572 | 2.173 | 3.101 | – |
| O=C(Nc1ccccc1)Nc1ccc(C(=O)/C=C2/C(=O)Nc3ccc(Cl)cc32)cc1 [Compound 12f, (E)-1-{4-[2-(5-Chloro-2-oxoindolin-3-ylidene)acetyl]phenyl}-3-phenylurea] | 5.81 ± 0.63 | 6.58 ± 0.923 | 3.41 ± 0.761 | 0.517 | 84.3 | 10.7 ± 0.766 | 1.845 | 1.630 | 3.144 | – |
| Cc1ccc2c(c1)/C(=C\C(=O)c1ccc(NC(=O)Nc3ccccc3)cc1)C(=O)N2 [Compound 12h, (E)-1-{4-[2-(5-Methyl-2-oxoindolin-3-ylidene)acetyl]phenyl}-3-phenylurea] | 4 ± 0.369 | 5.58 ± 0.636 | 2.07 ± 0.081 | 0.475 | 85.6 | 8.5 ± 0.466 | 2.128 | 1.523 | 4.107 | about 3.34 fold |
| O=C(Nc1ccccc1)Nc1cccc(C(=O)/C=C2/C(=O)Nc3ccccc32)c1 [Compound 12a, (E)-1-{3-[2-(2-Oxoindolin-3-ylidene)acetyl]phenyl}-3-phenylurea] | 5.24 ± 0.502 | 13.3 ± 1.35 | 3.13 ± 0.395 | 0.746 | 77.3 | 13.6 ± 0.659 | 2.606 | 1.022 | 4.355 | – |
| O=C(Nc1ccccc1)Nc1ccc(C(=O)/C=C2/C(=O)Nc3ccccc32)cc1 [Compound 12b, (E)-1-{4-[2-(2-Oxoindolin-3-ylidene)acetyl]phenyl}-3-phenylurea] | 4.09 ± 0.172 | 6.54 ± 0.452 | 2.08 ± 0.126 | 0.422 | 87.2 | 8.36 ± 0.374 | 2.043 | 1.277 | 4.014 | – |
| O=C(Nc1ccccc1)Nc1cccc(C(=O)/C=C2/C(=O)Nc3ccc(F)cc32)c1 [Compound 12c, (E)-1-{3-[2-(5-Fluoro-2-oxoindolin-3-ylidene)acetyl]phenyl}-3-phenylurea] | 6.8 ± 0.514 | 14.4 ± 1.47 | 5.81 ± 0.629 | 0.472 | 85.6 | 21.31 ± 0.026 | 3.133 | 1.483 | 3.669 | – |
